Reference: US20140161748A1, “METHODS FOR TREATING SUN-EXPOSED SKIN” (UNIVERSITY OF MANITOBA, priority 2011, published 2014)

Key:
Fibroblast cells = conditions: fibroblasts, doses 0, 0.01, 0.1 and 1 μM
Description: Fibroblast cells were plated at different densities, and exposed to UVC for various time (0 s, 10 s, 60 s and 360 s), then incubated for another 24 h, 48 h or 72 h (PIT). MTT assay was used to evaluate cell viability.

fibroblasts [1] = test system: fibroblasts
Description: Cultures were examined after 24, 48, and 72 hours after treatment with 0, 0.01, 0.1, 10, or 100 μM of Quetiapine.

fibroblasts [2] = conditions: UVB and Quetiapine for 48 hours
SKH-1 mice [3] = test system: SKH-1 mice
Description: (§1) Ten female SKH-1 mice were obtained from Jackson Laboratory. They were 9 weeks old at the start of the experiment.
(§2) Animals were ordered at 7 weeks of age and half were pretreated with quetiapine (10 mg/kg dissolved in drinking water) for two weeks prior to commencement of UV exposure. The other half were left untreated. Quetiapine was obtained in powder form (batch 1677) from Avlon Works, in Bristol, England, a production site for the pharmaceutical company AstraZeneca. All mice were exposed three times a week for a total of 10 weeks. Exposure intensity was 90 mJ/cm and exposure duration was 7.5 minutes. […] Excessive damage to the skin was not the goal of this study. The lamp used was manufactured by UVP (Upland, Calif., model UVLM-28).
(§3) Animals were free moving in a standard cage, with the light positioned about 30 cm above them. The intensity was measured and animals were not placed under the light until it had reached a stable value.
Skin samples were taken from the dorsal region (along the midline of the mouse close to the hindlimbs) of each mouse using a 6 mm dermal biopsy punch.
Three histological stains were used. Each stain was prepared by the histology technician in the Department of Human Anatomy and Cell Science at the University of Manitoba. Hematoxylin and Eosin (H&E) was used to examine skin structure. Van Gieson stain was used to examine collagen structure, and Verhoeff-Van Gieson stain was used to examine both collagen and elastin fibres.
Skin samples from all animals were embedded in paraffin wax blocks using standard techniques and sectioned at a thickness of 5 microns.
Staining with Hematoxylin and Eosin.
Staining with Van Gieson.
Staining with Verhoeff-Van Gieson.

proCOL1A1 = conditions: 0.1 μM; UVB 20 mJ/cm^2; compared to UVB control cells
Description: (§4) Fibroblasts were exposed to varying intensities of UVB, 0, 20, 40 and 60 mJ/cm^2 and were examined 24, 48 or 72 hours after. […] MMP-1 or matrix metalloproteinase-1 is an enzyme that is involved in the breakdown of the extracellular matrix in normal physiological processes such as embryonic development, reproduction and tissue modeling. It is also responsible for breaking down collagen. proCOL1A1 is one component that makes up a molecule of type 1 collagen, which is found in most connective tissue, including the skin.

fibroblasts [4] = test system: fibroblasts; remark: listed apart in the source
Description: as §4

SKH-1 mice [5] = conditions: 10 mg/kg in drinking water; after 2 weeks of UV treatment; vs untreated mice
Description: as §1, §2, §3

[6] = 10 mg/kg in drinking water, UV three times a week for 10 weeks

## OCCOCCN1CCN(C2=Nc3ccccc3Sc3ccccc32)CC1 [Quetiapine, 2-(2-(4-dibenzo[b,f][1,4]thiazepine-11-yl-1-piperazinyl)ethoxy)ethanol]
Fibroblast cells
  prevention of UVC induced cytotoxicity: did not prevent UVC induced cytotoxicity regardless of the dose given
Fibroblasts [1]; fibroblast cultures examined 24, 48 and 72 hours after treatment
  cytotoxic effect on fibroblasts: cytotoxic effect on fibroblasts at high concentrations
Fibroblasts [1]; fibroblasts, 1, 10 and 100 μM
  survival at 1, 10, and 100 μM: decreased further
Fibroblasts [1]; fibroblasts, 24, 48, 72 hours, 0-100 μM
  concentration at which survival started becoming affected: 100 nM
Fibroblasts [2]
  effect on cell death (PI-Hoechst 33342 staining): no effect on cell death
SKH-1 mice [3]; [6]
  collagen appearance (Van Gieson): darker staining and uniform, intact appearance of collagen bands
  elastic fibre number and structure (Verhoeff-Van Gieson): better preservation of elastic fibre number and structure
  epidermis thickness (Hematoxylin and Eosin): increased thickness in the untreated group compared to control and quetiapine treated animals
SKH-1 mice [3]; chronically UV exposed mice
  UV induced collagen breakdown and formation of abnormal elastic fibres (summary): appears to prevent UV induced collagen breakdown and the formation of abnormal elastic fibres
proCOL1A1
  proCOL1A1 content in cell lysates: significantly increase
Fibroblasts [4]
  alleviation of UVB induced cell viability (MTT assay): not to alleviate UVB induced cell viability
SKH-1 mice [5]
  skin irritation: less irritation
  skin redness: less redness
